According to ChEMBL document CHEMBL4808169, “Discovery of Potent and Fast-Acting Antimalarial Bis-1,2,4-triazines” (J Med Chem, 2021):
Calls of active or inactive are those of the source. The rule behind the calls is not given here.

What was measured:
[1] = test system: Plasmodium falciparum; assay: Antiplasmodial activity against Plasmodium falciparum 3D70087/N9 infected in NOD-SCID 1L2Rgamma mouse assessed as reduction in parasitemia at 50 mg/kg, po administered for 4 days starting from day 3 post infection by Peter's 4-day test; assay type: functional, organism-based
[2] = Selectivity ratio of CC50 for HEK293 cells to IC50 for Plasmodium falciparum 3D7; assay type: toxicity; details: human, read-out: Ratio CC50/IC50
[3] = Cmax in Swiss mouse plasma at 2.8 mg/kg, po measured up to 24 hrs by LC-MS analysis; assay type: ADME, organism-based; set-up: route oral, dose 2.8 mg/kg, time <=24
[4] = Drug metabolism in human hepatocytes assessed as glucuronides/sulfates metabolite formation by LC-MS/MS(CID) analysis; assay type: ADME, cell-based, Hepatocyte
[5] = Drug metabolism in Sprague-Dawley rat urine assessed as N-methyl-2-(3'-propoxy-5,5'-bi(1,2,4-triazin)-3-yloxy)ethanamine formation at 3 mg/kg, iv by high-resolution mass spectrometry; assay type: ADME, organism-based; details: in vivo

CCCOc1nncc(-c2cnnc(OCCN(C)C)n2)n1
Activity [1]: Active
selectivity ratio [2]: > 1000
Cmax [3]: 16.8 nM
Drug metabolism [4]: Metabolite_Notdetected
Drug metabolism [5]: Metabolite_Detected
